Measurements reported in patent US20230136600A1, “Method and device for screening antigen epitope polypeptide” (priority 2020, published 2023).

System: Balb/c mice
Experiment: Polypeptide chip-based vaccine immunogenicity scoring system
Type: in vivo
Design: key to A2: whether the 95 percentile of the last sampling is increased compared with the end point: Y = rise; N = no rise
Conditions: for A: 95 percentile grouping number score / B: Mouse performance score: total score = 5
Protocol: Data distribution and characteristics thereof are analyzed based on a) and b), a polypeptide chip-based vaccine immunogenicity scoring system (referring to Table 7) is designed.
10 combinations are evaluated by the polypeptide chip-based vaccine immunogenicity scoring system. An evaluation method is consistent with that in Embodiment II. Evaluation results are show in the table below.
This embodiment is consistent with Embodiment II. Each combination is evaluated by the polypeptide chip-based vaccine immunogenicity scoring system. Evaluation results are show in the table below.

[1] = Embodiment III, polypeptide-KLH
[2] = Embodiment III, polypeptide-KLH, Mix1-10
[3] = Embodiment III, polypeptide-KLH, value of the whole mix
[4] = adjuvant AddaVax, 7 peptides co-immunized in mice
[5] = adjuvant Adju-Phos, 7 peptides co-immunized in mice
[6] = adjuvant Alhydrogel, 7 peptides co-immunized in mice
[7] = adjuvant Imjet Alumn, 7 peptides co-immunized in mice
[8] = adjuvant MA103A, 7 peptides co-immunized in mice
[9] = adjuvant MA103B, 7 peptides co-immunized in mice

SVYAWNRKR (SARS-CoV-2) [SEQ ID NO:3]
A2: whether the 95 percentile of the last sampling is increased compared with the end point (Embodiment II, Combination 1): N | B1: D 0-D 14 95 percentile rise in the number of mice (Embodiment II, Combination 1): 5 | B2: D 0-D 21 95 percentile rise in the number of mice (Embodiment II, Combination 1): 5 | B3: D 14-D 21 95 percentile rise in the number of mice (Embodiment II, Combination 1): 1 | B4: D 21-D 28 95 percentile rise in the number of mice (Embodiment II, Combination 1): 2 | Total single peptide (Embodiment II, Combination 1, A*3 + B*2 + C*1): 10.7 | A: 95 percentile grouping number score (Embodiment II, Combination 1): 1 | B: Mouse performance score (Embodiment II, Combination 1): 3.6 | A1: difference between a highest median and a D 0 median (95 percentile) (Embodiment II, mice immunized with Combination 1): 0.05 | B1: D 0-D 14 95 percentile rise in the number of mice [1]: 3 | B2: D 0-D 21 95 percentile rise in the number of mice [1]: 3 | B3: D 14-D 21 95 percentile rise in the number of mice [1]: 2 | B4: D 21-D 28 95 percentile rise in the number of mice [1]: 1 | A1: difference between a highest median and a D 0 median (95 percentile) [2]: 0.13 | A2: whether the 95 percentile of the last sampling is increased compared with the end point [2]: N | Total single peptide (Embodiment III, polypeptide-KLH, A*3 + B*2 + C*1): 18.7 | A: 95 percentile grouping number score [1]: 4.5 | B: Mouse performance score [1]: 2.1 | C1: #A timing-sequence response peptide fragment set [3]: 823 | C2: #B vaccine specificity peptide fragment set [3]: 398 | C3: Intersection of A and B [3]: 7 | C4: Percentage of the intersection in set B [3]: 1.759 | C: Timing-sequence response and specificity score [3]: 1 | 1) 95 percentile grouping number A [4]: 4 | 1) 95 percentile grouping number A1 [4]: 0.05 | 2) Mouse performance B [4]: 3.5 | 2) Mouse performance B1 [4]: 3 | 2) Mouse performance B2 [4]: 5 | 2) Mouse performance B3 [4]: 4 | 3) Timing-sequence response and specificity C [4]: 0 | 3) Timing-sequence response and specificity C1 [4]: 237 | 3) Timing-sequence response and specificity C2 [4]: 1244 | 3) Timing-sequence response and specificity C3 [4]: 0 | 3) Timing-sequence response and specificity C4 [4]: 0.000 | Total single peptide [4]: 19 | 1) 95 percentile grouping number A [5]: 3.5 | 1) 95 percentile grouping number A1 [5]: 0.05 | 2) Mouse performance B [5]: 3 | 2) Mouse performance B1 [5]: 4 | 2) Mouse performance B2 [5]: 5 | 2) Mouse performance B3 [5]: 2 | 3) Timing-sequence response and specificity C [5]: 0 | 3) Timing-sequence response and specificity C1 [5]: 203 | 3) Timing-sequence response and specificity C2 [5]: 1244 | 3) Timing-sequence response and specificity C3 [5]: 0 | 3) Timing-sequence response and specificity C4 [5]: 0.000 | Total single peptide [5]: 16.5 | 1) 95 percentile grouping number A [6]: 1 | 1) 95 percentile grouping number A1 [6]: 0.012 | 2) Mouse performance B [6]: 0.8 | 2) Mouse performance B1 [6]: 2 | 2) Mouse performance B2 [6]: 1 | 2) Mouse performance B3 [6]: 0 | 3) Timing-sequence response and specificity C [6]: 1 | 3) Timing-sequence response and specificity C1 [6]: 123 | 3) Timing-sequence response and specificity C2 [6]: 1244 | 3) Timing-sequence response and specificity C3 [6]: 2 | 3) Timing-sequence response and specificity C4 [6]: 0.161 | Total single peptide [6]: 5.1 | 1) 95 percentile grouping number A [7]: 5 | 1) 95 percentile grouping number A1 [7]: 0.09 | 2) Mouse performance B [7]: 2.7 | 2) Mouse performance B1 [7]: 5 | 2) Mouse performance B2 [7]: 4 | 2) Mouse performance B3 [7]: 1 | 3) Timing-sequence response and specificity C [7]: 1 | 3) Timing-sequence response and specificity C1 [7]: 100 | 3) Timing-sequence response and specificity C2 [7]: 1244 | 3) Timing-sequence response and specificity C3 [7]: 3 | 3) Timing-sequence response and specificity C4 [7]: 0.241 | Total single peptide [7]: 20.9 | 1) 95 percentile grouping number A [8]: 5 | 1) 95 percentile grouping number A1 [8]: 0.08 | 2) Mouse performance B [8]: 2.9 | 2) Mouse performance B1 [8]: 5 | 2) Mouse performance B2 [8]: 5 | 2) Mouse performance B3 [8]: 1 | 3) Timing-sequence response and specificity C [8]: 1 | 3) Timing-sequence response and specificity C1 [8]: 260 | 3) Timing-sequence response and specificity C2 [8]: 1244 | 3) Timing-sequence response and specificity C3 [8]: 3 | 3) Timing-sequence response and specificity C4 [8]: 0.241 | Total single peptide [8]: 21.3 | 1) 95 percentile grouping number A [9]: 3.5 | 1) 95 percentile grouping number A1 [9]: 0.05 | 2) Mouse performance B [9]: 2.9 | 2) Mouse performance B1 [9]: 5 | 2) Mouse performance B2 [9]: 5 | 2) Mouse performance B3 [9]: 1 | 3) Timing-sequence response and specificity C [9]: 0 | 3) Timing-sequence response and specificity C1 [9]: 153 | 3) Timing-sequence response and specificity C2 [9]: 1244 | 3) Timing-sequence response and specificity C3 [9]: 0 | 3) Timing-sequence response and specificity C4 [9]: 0.000 | Total single peptide [9]: 16.3
